Laboratory results published in ChEMBL document CHEMBL1287781, “Novel lipophilic 7H-pyrido[1,2,3-de]-1,4-benzoxazine-6-carboxylic acid derivatives as potential antitumor agents: improved synthesis and in vitro evaluation” (Bioorg Med Chem, 2010).
Activity calls are given as the source filed them. No cut-off for these calls is given here.

Experiments:
LoVo [1] = assay: Anticancer activity against human LoVo cells after 5 days by MTT assay; assay type: functional, cell-based; settings: 120 h
MCF7 [2] = assay: Anticancer activity against human MCF7 after 5 days by MTT assay; assay type: functional, cell-based; settings: MCF7, 120 h
[3] = Anticancer activity against human U373MG after 5 days by MTT assay; assay type: functional, cell-based, U-373MG ATCC; settings: U373 MG, 120 h
A549 [4] = assay: Anticancer activity against human A549 after 5 days by MTT assay; assay type: functional, cell-based; settings: A549, 120 h
PC-3 [5] = assay: Anticancer activity against human PC3 after 5 days by MTT assay; assay type: functional, cell-based; settings: PC-3, 120 h
[6] = Chemical stability of the compound in phosphate buffer at pH 7.4 after 7 days; assay type: physicochemical; settings: read-out: Stability
LoVo [7] = assay: Anticancer activity against human LoVo cells after 3 to 5 days by MTT assay; assay type: functional, cell-based
MCF7 [8] = assay: Anticancer activity against human MCF7 after 3 to 5 days by MTT assay; assay type: functional, cell-based
U-373MG ATCC [9] = assay: Anticancer activity against human U373MG after 3 to 5 days by MTT assay; assay type: functional, cell-based
PC-3 [10] = assay: Anticancer activity against human PC3 after 3 to 5 days by MTT assay; assay type: functional, cell-based
A549 [11] = assay: Anticancer activity against human A549 after 3 to 5 days by MTT assay; assay type: functional, cell-based
U-373MG ATCC [12] = assay: Antimigratory activity against human U373MG at 0.1 uM after 6 days by phase-contrast microscopy; assay type: functional, cell-based
U-373MG ATCC [13] = assay: Antimigratory activity against human U373MG at 1 uM after 6 days by phase-contrast microscopy; assay type: functional, cell-based
A549 [14] = assay: Anticancer activity against human A549 by sulforhodamine B assay; assay type: functional, cell-based
MCF7 [15] = assay: Anticancer activity against human MCF7 by sulforhodamine B assay; assay type: functional, cell-based
[16] = Toxicity in ip dosed B6D2F1 mouse after 28 days; assay type: organism-based; settings: in vivo

CCCCCCCCCCCCCC(=O)OCOC(=O)c1cn2c3c(c(N4CCN(C)CC4)c(F)cc3c1=O)OC[C@@H]2C
IC50 (LoVo [1]): 21 µM | IC50 (MCF7 [2]): 6 µM | IC50 [3]: 8 µM | IC50 (A549 [4]): 617 µM | IC50 (PC-3 [5]): 71 µM

CCCCCCCCCCCCCCNC(=O)c1cn2c3c(c(N4CCN(C)CC4)c(F)cc3c1=O)OC[C@@H]2C
IC50 (LoVo [1]): 3 µM | IC50 (MCF7 [2]): 5 µM | IC50 [3]: 3 µM | IC50 (A549 [4]): 5 µM | IC50 (PC-3 [5]): 3 µM | remaining at 168 h [6]: > 98%

CCCCCCCNC(=O)c1cn2c3c(c(N4CCN(C)CC4)c(F)cc3c1=O)OC[C@@H]2C
IC50 (LoVo [1]): 1 µM | IC50 (MCF7 [2]): 5 µM | IC50 [3]: 3 µM | IC50 (A549 [4]): 3 µM | IC50 (PC-3 [5]): 4 µM

C[C@H]1COc2c(N3CCN(C)CC3)c(F)cc3c(=O)c(C(=O)O)cn1c23 [LEVOFLOXACIN]
Activity (LoVo [7]): Dose-dependent effect | Activity (MCF7 [8]): Dose-dependent effect | IC50 (LoVo [1]): 67 µM | IC50 (MCF7 [2]): 622 µM | IC50 [3]: 188 µM | Activity (U-373MG ATCC [9]): Dose-dependent effect | IC50 (A549 [4]): 70 µM | Activity (PC-3 [10]): Dose-dependent effect | IC50 (PC-3 [5]): 238 µM | Activity (A549 [11]): Dose-dependent effect

CCCCCCCCCCCCNC(=O)c1cn2c3c(c(N4CCN(C)CC4)c(F)cc3c1=O)OC[C@@H]2C
IC50 (LoVo [1]): 3 µM | IC50 (MCF7 [2]): 10 µM | IC50 [3]: 5 µM | IC50 (A549 [4]): 5 µM | IC50 (PC-3 [5]): 5 µM

CCCC(=O)OCOC(=O)c1cn2c3c(c(N4CCN(C)CC4)c(F)cc3c1=O)OC[C@@H]2C
IC50 (LoVo [1]): 5 µM | IC50 (MCF7 [2]): 35 µM | IC50 [3]: 40 µM | IC50 (A549 [4]): 3 µM | IC50 (PC-3 [5]): 31 µM | remaining at 168 h [6]: > 92%

CCCCNC(=O)c1cn2c3c(c(N4CCN(C)CC4)c(F)cc3c1=O)OC[C@@H]2C
IC50 (LoVo [1]): 24 µM | IC50 (MCF7 [2]): 55 µM | IC50 [3]: 113 µM | IC50 (A549 [4]): 46 µM | IC50 (PC-3 [5]): 30 µM | remaining at 168 h [6]: > 97%

CCCCCCCCNC(=O)c1cn2c3c(c(N4CCN(C)CC4)c(F)cc3c1=O)OC[C@@H]2C
Activity (LoVo [7]): Dose-dependent effect | Activity (MCF7 [8]): Dose-dependent effect | IC50 (LoVo [1]): 0.8 µM | IC50 (MCF7 [2]): 2.1 µM | IC50 [3]: 2.3 µM | Activity (U-373MG ATCC [9]): Dose-dependent effect | IC50 (A549 [4]): 2.2 µM | Activity (PC-3 [10]): Dose-dependent effect | IC50 (PC-3 [5]): 1.5 µM | remaining at 168 h [6]: 100% | Activity (A549 [11]): Dose-dependent effect

CCCCCCCCCCNC(=O)c1cn2c3c(c(N4CCN(C)CC4)c(F)cc3c1=O)OC[C@@H]2C
IC50 (LoVo [1]): 3 µM | IC50 (MCF7 [2]): 5 µM | IC50 [3]: 3 µM | IC50 (A549 [4]): 3 µM | IC50 (PC-3 [5]): 3 µM

CCCCCCCCCCCCCCCCCC(=O)OCOC(=O)c1cn2c3c(c(N4CCN(C)CC4)c(F)cc3c1=O)OC[C@@H]2C
Activity (U-373MG ATCC [12]): inactive | IC50 (LoVo [1]): 4 µM | IC50 (MCF7 [2]): 12 µM | IC50 [3]: 0.9 µM | IC50 (A549 [4]): 593 µM | IC50 (PC-3 [5]): 100 µM | Activity (U-373MG ATCC [13]): inactive

CCCCCCCCCCCCCCCNC(=O)c1cn2c3c(c(N4CCN(C)CC4)c(F)cc3c1=O)OC[C@@H]2C
IC50 (LoVo [1]): 6 µM | IC50 (MCF7 [2]): 15 µM | IC50 [3]: 7 µM | IC50 (A549 [4]): 8 µM | IC50 (PC-3 [5]): 5 µM

CCCCCCNC(=O)c1cn2c3c(c(N4CCN(C)CC4)c(F)cc3c1=O)OC[C@@H]2C
IC50 (LoVo [1]): 5 µM | IC50 (MCF7 [2]): 16 µM | IC50 [3]: 4 µM | IC50 (A549 [4]): 6 µM | IC50 (PC-3 [5]): 12 µM | remaining at 168 h [6]: 100%

C[C@H]1COc2c(N3CCN(C)CC3)c(F)cc3c(=O)c(-c4nc5ccc([N+](=O)[O-])cc5s4)cn1c23
IC50 (A549 [14]): > 10 µM | IC50 (MCF7 [15]): > 10 µM

CCCCCCCC(=O)OCOC(=O)c1cn2c3c(c(N4CCN(C)CC4)c(F)cc3c1=O)OC[C@@H]2C
IC50 (LoVo [1]): 209 µM | IC50 (MCF7 [2]): 238 µM | IC50 [3]: 243 µM | IC50 (A549 [4]): 289 µM | MTD at 672 h [16]: > 80 mg/kg | IC50 (PC-3 [5]): 230 µM | remaining at 168 h [6]: > 90%

CCCCCCCCCCCCCCCC(=O)OCOC(=O)c1cn2c3c(c(N4CCN(C)CC4)c(F)cc3c1=O)OC[C@@H]2C
IC50 (LoVo [1]): 6 µM | IC50 (MCF7 [2]): 8 µM | IC50 [3]: 4 µM | IC50 (A549 [4]): 46 µM | IC50 (PC-3 [5]): 56 µM | remaining at 168 h [6]: > 93%

CO/N=C(/CN1CCN(c2cc3c(cc2F)c(=O)c(C(=O)O)cn3C2CC2)CC1)c1ccc(Cl)s1
IC50 (MCF7 [2]): 2.9 µM

CCCCCC(=O)OCOC(=O)c1cn2c3c(c(N4CCN(C)CC4)c(F)cc3c1=O)OC[C@@H]2C
IC50 (LoVo [1]): 162 µM | IC50 (MCF7 [2]): 183 µM | IC50 [3]: 199 µM | IC50 (A549 [4]): 235 µM | MTD at 672 h [16]: > 80 mg/kg | IC50 (PC-3 [5]): 207 µM

CCCCCCCCCC(=O)OCOC(=O)c1cn2c3c(c(N4CCN(C)CC4)c(F)cc3c1=O)OC[C@@H]2C
IC50 (LoVo [1]): > 1000 µM | IC50 (MCF7 [2]): > 1000 µM | IC50 [3]: > 1000 µM | IC50 (A549 [4]): > 1000 µM | MTD at 672 h [16]: > 80 mg/kg | IC50 (PC-3 [5]): > 1000 µM

CCCCCCCCCCCC(=O)OCOC(=O)c1cn2c3c(c(N4CCN(C)CC4)c(F)cc3c1=O)OC[C@@H]2C
Activity (U-373MG ATCC [12]): inactive | IC50 (LoVo [1]): 0.3 µM | IC50 (MCF7 [2]): 0.3 µM | IC50 [3]: 0.2 µM | IC50 (A549 [4]): 65 µM | IC50 (PC-3 [5]): 86 µM | remaining at 168 h [6]: > 91% | Activity (U-373MG ATCC [13]): inactive
